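Growth conditions: 96-well plates. Treatment: test compound, 48 hours, 5 concentrations. Analysis: linear interpolation between bracketing concentrations; unreached endpoints set to highest concentration. GI50: concentration for 50% inhibition of growth.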 Activity calls are given as the source filed them. No stated cut-off is given here; in the data, active = GI50 up to about 1.1 µM and inactive = higher.
What was measured:
Assay in all cases: NCI anticancer screen, dose series, 48 h
OVCAR-8 = tested on: OVCAR-8
SF-268 = tested on: SF-268
UO-31 = tested on: UO-31
NCI-H226 = tested on: NCI-H226
LOX IMVI = tested on: LOX IMVI
KM12 = tested on: KM12
RXF 393 = tested on: RXF 393
TK-10 = tested on: TK-10
ACHN = tested on: ACHN
K562 = tested on: K562
HCT-116 = tested on: HCT-116
SN12C = tested on: SN12C
U-251 = tested on: U-251
HOP-92 = tested on: HOP-92
SK-MEL-5 = tested on: SK-MEL-5
SR = tested on: SR
SW-620 = tested on: SW-620
OVCAR-5 = tested on: OVCAR-5
SK-OV-3 = tested on: SK-OV-3
NCI-H522 = tested on: NCI-H522
HOP-18 = tested on: HOP-18
DMS-273 = tested on: DMS-273
Malme-3M = tested on: Malme-3M
SNB-75 = tested on: SNB-75
A498 = tested on: A498
COLO 205 = tested on: COLO 205
HL-60 = tested on: HL-60
KM-20L2 = tested on: KM-20L2
DMS-114 = tested on: DMS-114
OVCAR-4 = tested on: OVCAR-4
SK-MEL-2 = tested on: SK-MEL-2
HCT-15 = tested on: HCT-15
NCI-H460 = tested on: NCI-H460
UACC-62 = tested on: UACC-62
LXFL 529 = tested on: LXFL 529
SF-295 = tested on: SF-295
A549 = tested on: A549
CCRF-CEM = tested on: CCRF-CEM
HT-29 = tested on: HT-29
CAKI-1 = tested on: CAKI-1
NCI-H23 = tested on: NCI-H23
786-0 = tested on: 786-0
M14 = tested on: M14
IGROV-1 = tested on: IGROV-1
UACC-257 = tested on: UACC-257
MOLT-4 = tested on: MOLT-4
XF498 = tested on: XF498
DLD-1 = tested on: DLD-1
RPMI-8226 = tested on: RPMI-8226
SF-539 = tested on: SF-539
M19-MEL = tested on: M19-MEL
SK-MEL-28 = tested on: SK-MEL-28
HCC 2998 = tested on: HCC 2998
SNB-78 = tested on: SNB-78
SNB-19 = tested on: SNB-19
OVCAR-3 = tested on: OVCAR-3
EKVX = tested on: EKVX
HOP-62 = tested on: HOP-62

## O=C(O)CCc1cccc2c1oc1c(CCC(=O)O)cccc12
OVCAR-8
  GI50: > 100 µM (inactive)
SF-268
  GI50: > 100 µM (inactive)
UO-31
  GI50: > 100 µM (inactive)
NCI-H226
  GI50: > 100 µM (inactive)
LOX IMVI
  GI50: > 100 µM (inactive)
KM12
  GI50: > 100 µM (inactive)
RXF 393
  GI50: > 100 µM (inactive)
TK-10
  GI50: > 100 µM (inactive)
ACHN
  GI50: > 100 µM (inactive)
K562
  GI50: > 100 µM (inactive)
HCT-116
  GI50: > 100 µM (inactive)
SN12C
  GI50: > 100 µM (inactive)
U-251
  GI50: > 100 µM (inactive)
HOP-92
  GI50: > 100 µM (inactive)
SK-MEL-5
  GI50: > 100 µM (inactive)
SR
  GI50: > 100 µM (inactive)
SW-620
  GI50: > 100 µM (inactive)
OVCAR-5
  GI50: > 100 µM (inactive)
SK-OV-3
  GI50: > 100 µM (inactive)
NCI-H522
  GI50: > 100 µM (inactive)
HOP-18
  GI50: > 100 µM (inactive)
DMS-273
  GI50: > 100 µM (inactive)
Malme-3M
  GI50: > 100 µM (inactive)
SNB-75
  GI50: > 100 µM (inactive)
A498
  GI50: > 100 µM (inactive)
COLO 205
  GI50: > 100 µM (inactive)
HL-60
  GI50: > 100 µM (inactive)
KM-20L2
  GI50: > 100 µM (inactive)
DMS-114
  GI50: > 100 µM (inactive)
OVCAR-4
  GI50: > 100 µM (inactive)
SK-MEL-2
  GI50: > 100 µM (inactive)
HCT-15
  GI50: > 100 µM
NCI-H460
  GI50: > 100 µM (inactive)
UACC-62
  GI50: > 100 µM (inactive)
LXFL 529
  GI50: > 100 µM (inactive)
SF-295
  GI50: > 100 µM (inactive)
A549
  GI50: > 100 µM (inactive)
CCRF-CEM
  GI50: > 100 µM (inactive)
HT-29
  GI50: > 100 µM (inactive)
CAKI-1
  GI50: > 100 µM (inactive)
NCI-H23
  GI50: > 100 µM (inactive)
786-0
  GI50: > 100 µM (inactive)
M14
  GI50: > 100 µM (inactive)
IGROV-1
  GI50: > 100 µM (inactive)
UACC-257
  GI50: > 100 µM (inactive)
MOLT-4
  GI50: > 100 µM (inactive)
XF498
  GI50: > 100 µM (inactive)
DLD-1
  GI50: > 100 µM (inactive)
RPMI-8226
  GI50: > 100 µM (inactive)
SF-539
  GI50: > 100 µM (inactive)
M19-MEL
  GI50: > 100 µM (inactive)
SK-MEL-28
  GI50: > 100 µM (inactive)
HCC 2998
  GI50: > 100 µM (inactive)
SNB-78
  GI50: 48.1 µM (inactive)
SNB-19
  GI50: > 100 µM (inactive)
OVCAR-3
  GI50: > 100 µM (inactive)

## O=C1CSC(Cc2nc3ccccc3[nH]2)=N1
OVCAR-8
  GI50: 23.5 µM (inactive)
SF-268
  GI50: 16.7 µM (inactive)
UO-31
  GI50: 20.6 µM (inactive)
NCI-H226
  GI50: 13.9 µM (inactive)
EKVX
  GI50: 33.7 µM (inactive)
LOX IMVI
  GI50: 13.9 µM (inactive)
KM12
  GI50: 17.6 µM (inactive)
RXF 393
  GI50: 18.7 µM (inactive)
TK-10
  GI50: 28.2 µM (inactive)
ACHN
  GI50: 5.41 µM (inactive)
K562
  GI50: 15 µM (inactive)
HCT-116
  GI50: 12.9 µM (inactive)
SN12C
  GI50: 18.1 µM (inactive)
U-251
  GI50: 17.3 µM (inactive)
HOP-92
  GI50: 29.9 µM (inactive)
SK-MEL-5
  GI50: 7.45 µM (inactive)
SR
  GI50: 5.83 µM (inactive)
SW-620
  GI50: 31.9 µM (inactive)
OVCAR-5
  GI50: 28.8 µM (inactive)
SK-OV-3
  GI50: 36.1 µM (inactive)
NCI-H522
  GI50: 17.7 µM (inactive)
HOP-18
  GI50: 23.4 µM (inactive)
DMS-273
  GI50: 15.4 µM (inactive)
Malme-3M
  GI50: 10.6 µM (inactive)
SNB-75
  GI50: 17.1 µM (inactive)
A498
  GI50: 5.98 µM (inactive)
COLO 205
  GI50: 23.5 µM (inactive)
HL-60
  GI50: 28.6 µM (inactive)
KM-20L2
  GI50: 14.1 µM (inactive)
DMS-114
  GI50: 13.1 µM (inactive)
OVCAR-4
  GI50: 18.5 µM (inactive)
SK-MEL-2
  GI50: 16.3 µM (inactive)
HCT-15
  GI50: 17.5 µM
UACC-62
  GI50: 15.1 µM (inactive)
LXFL 529
  GI50: 16.3 µM (inactive)
SF-295
  GI50: 24.7 µM (inactive)
A549
  GI50: 21.6 µM (inactive)
CCRF-CEM
  GI50: 6.4 µM (inactive)
HT-29
  GI50: 24.7 µM (inactive)
CAKI-1
  GI50: 15.8 µM (inactive)
NCI-H23
  GI50: 18.6 µM (inactive)
786-0
  GI50: 17.1 µM (inactive)
M14
  GI50: 15.4 µM (inactive)
IGROV-1
  GI50: 26.6 µM (inactive)
UACC-257
  GI50: 19.7 µM (inactive)
MOLT-4
  GI50: 9.98 µM (inactive)
XF498
  GI50: 20.4 µM (inactive)
DLD-1
  GI50: 18.2 µM (inactive)
RPMI-8226
  GI50: 13.7 µM (inactive)
SF-539
  GI50: 20.7 µM (inactive)
M19-MEL
  GI50: 7.03 µM (inactive)
SK-MEL-28
  GI50: 16 µM (inactive)
HCC 2998
  GI50: 18.3 µM (inactive)
SNB-78
  GI50: 40.5 µM (inactive)
SNB-19
  GI50: 21.1 µM (inactive)
HOP-62
  GI50: 22.3 µM (inactive)
OVCAR-3
  GI50: 14.3 µM (inactive)
